According to patent US8372867B2, “Insecticidal aryl isoxazoline derivatives” (Bayer CropScience AG, priority 2007, dated 2013):

Assays:
[1] = system: Spodoptera litura; test: Test against larva of Spodoptera litura (leaf dip); type: in vivo; conditions: 100 ppm of the active compound; third instar larvae; after 7 days
Procedure: Solvent: Dimethylformamide 3 parts by weight
Emulsifier: Polyoxyethylene alkyl phenyl ether 1 part by weight
(§1) To prepare an appropriate formulation of an active compound, 1 part by weight of the active compound was mixed with the aforementioned amount of the solvent containing the aforementioned amount of the emulsifier, and the mixture was diluted to a prescribed concentration with water.
Leaves of sweet potate were soaked in the test agent diluted to a prescribed concentration with water, air-dried, and placed in a dish of 9 cm in diameter. Into this dish, 10 larvae of Spodoptera litura at the third instar were released and kept in a room at constant temperature of 25° C. After 2 and 4 days, more leaves of sweet potato were added, and the number of dead larvae after 7 days was counted to calculate the death rate. In this test, the test results are presented as an average of the results of two dishes per section.

[2] = system: Aulacophora femoralis; test: Test against Aulacophora femoralis (leaf dip); type: in vivo; conditions: 100 ppm of the active compound; second instar larvae; after 7 days
Procedure: as §1
Leaves of cucumbers were soaked in a diluted aqueous solution of the prescribed concentration of an active compound prepared in the same manner as in the aforementioned tests, air-dried, and placed a plastic cup containing sterilized black soil. Into this cup, 5 larvae of Aulacophora femoralis at second instar were then released. After 7 days, the number of dead larvae was counted to calculate the death rate.

[3] = system: Lucilia cuprina larvae; test: whole plant or invertebrate; conditions: in Equus caballus, read-out: activity (mortality in %)
[4] = system: Musca domestica; test: whole plant or invertebrate; conditions: read-out: activity (mortality in %)
[5] = system: Boophilus microplus; test: whole plant or invertebrate; conditions: Rhipicephalus microplus, 168 h, read-out: activity (mortality in %)
[6] = system: organic phosphorus agent- and carbamate agent-resistant Myzus persicae; test: Test against organic phosphorus agent- and carbamate agent-resistant Myzus persicae (spray); type: in vivo; conditions: 500 ppm of the active compound; adults on eggplant; 7 days at 28° C.
Procedure: as §1
About 30 to 50 adults of organic phosphorus agent- and carbamate agent-resistant Myzus persicae per seedling were inoculated to leaves of eggplants at two leaf stage cultured in a pot of 6 cm in diameter. One day after the inoculation, an ample amount of the diluted aqueous solution of the prescribed concentration of an active compound prepared in the same manner as in the aforementioned tests was sprayed with a spray gun. After the spraying, the pot was kept in a greenhouse at 28° C. for 7 days, the death rate was calculated. The test was duplicated.

| Compound | death rate [1] [%] | death rate [2] [%] | other results |
| --- | --- | --- | --- |
| CC(=O)N(C)Cc1ccc(C2=NOC(c3cc(Cl)cc(Cl)c3)(C(F)(F)F)C2)cc1Br (centres unmarked) [1-46] | 100 | 100 | – |
| CC(=O)NCc1ccc(C2=NOC(c3cc(Cl)cc(Cl)c3)(C(F)(F)F)C2)cc1Br (centres unmarked) [1-13] | 100 | 100 | – |
| O=C(NCc1ccc(C2=NOC(c3cc(Cl)cc(Cl)c3)(C(F)(F)F)C2)cc1Br)c1cccnc1 (centres unmarked) [1-26] | 100 | 100 | – |
| CC(=O)N(Cc1ccncc1)Cc1ccc(C2=NOC(c3cc(Cl)cc(Cl)c3)(C(F)(F)F)C2)cc1Br (centres unmarked) [1-17] | 100 | 100 | – |
| CC(=O)NCc1ccc(C2=NOC(c3cc(Cl)cc(Cl)c3)(C(F)(F)F)C2)cc1I (centres unmarked) [1-59] | 100 | 100 | – |
| CSC(=O)NCc1ccc(C2=NOC(c3cc(Cl)cc(Cl)c3)(C(F)(F)F)C2)cc1Br (centres unmarked) [1-43] | 100 | – | – |
| CC(=O)N(Cc1cccnc1)Cc1ccc(C2=NOC(c3cc(Cl)cc(Cl)c3)(C(F)(F)F)C2)cc1Br (centres unmarked) [1-16] | 100 | 100 | – |
| CCC(=O)N(Cc1ccc(C2=NOC(c3cc(Cl)cc(Cl)c3)(C(F)(F)F)C2)cc1)Cc1ccccn1 (centres unmarked) [1-6] | 100 | 100 | – |
| CC(=O)NCc1ccc(C2=NOC(c3cc(C(F)(F)F)cc(C(F)(F)F)c3)(C(F)(F)F)C2)cc1Br (centres unmarked) [1-101] | 100 | 100 | – |
| CC(=O)NCc1ccc(C2=NOC(c3ccc(Cl)c(Cl)c3)(C(F)(F)F)C2)cc1Br (centres unmarked) [1-94] | 100 | 100 | – |
| CC(=O)NCc1ccc(C2=NOC(c3cc(Cl)cc(Cl)c3)(C(F)(F)F)C2)cc1Cl (centres unmarked) [1-58] | 100 | 100 | – |
| CC(=O)NCc1ccc(C2=NOC(c3cc(Cl)cc(Cl)c3)(C(F)(F)F)C2)cc1 (centres unmarked) [1-1, N-{4-[5-(3,5-dichlorophenyl)-5-(trifluoromethyl)-4,5-dihydroisoxazol-3-yl]benzyl}acetamide] | 100 | 100 | mortality at 100 ppm [3]: ≥ 80%; mortality at 100 ppm [4]: ≥ 80% |
| O=CN(Cc1ccc(C2=NOC(c3cc(Cl)cc(Cl)c3)(C(F)(F)F)C2)cc1)Cc1ccccn1 (centres unmarked) [1-4] | 100 | – | – |
| CC(=O)NCc1ccc(C2=NOC(C)(c3cc(Cl)cc(Cl)c3)C2)cc1Br (centres unmarked) [1-93] | – | 100 | – |
| O=C(NCc1ccc(C2=NOC(c3cc(Cl)cc(Cl)c3)(C(F)(F)F)C2)cc1Br)c1ccncc1 (centres unmarked) [1-27] | 100 | 100 | – |
| CC(C)C(=O)NCc1ccc(C2=NOC(c3cc(Cl)cc(Cl)c3)(C(F)(F)F)C2)cc1Br (centres unmarked) [1-21] | 100 | 100 | – |
| C=CC(=O)NCc1ccc(C2=NOC(c3cc(Cl)cc(Cl)c3)(C(F)(F)F)C2)cc1Br (centres unmarked) [1-36] | 100 | 100 | – |
| O=C(NCc1ccc(C2=NOC(c3cc(Cl)cc(Cl)c3)(C(F)(F)F)C2)cc1Br)c1ccccc1Br (centres unmarked) [1-34] | 100 | 100 | – |
| CC(=O)N(Cc1ccc(C2=NOC(c3cc(Cl)cc(Cl)c3)(C(F)(F)F)C2)cc1Br)N=C(C)C (centres unmarked) [1-90] | 100 | – | – |
| CN(C)C(=O)NCc1ccc(C2=NOC(c3cc(Cl)cc(Cl)c3)(C(F)(F)F)C2)cc1Br (centres unmarked) [1-41] | 100 | 100 | – |
| O=C(NCc1ccc(C2=NOC(c3cc(Cl)cc(Cl)c3)(C(F)(F)F)C2)cc1Br)c1ccccn1 (centres unmarked) [1-25] | 100 | – | – |
| CNC(=O)NCc1ccc(C2=NOC(c3cc(Cl)cc(Cl)c3)(C(F)(F)F)C2)cc1Br (centres unmarked) [1-40] | 100 | 100 | – |
| CC(=O)N(Cc1ccccn1)Cc1ccc(C2=NOC(c3cc(Cl)cc(Cl)c3)(C(F)(F)F)C2)cc1Br (centres unmarked) [1-15, N-{2-bromo-4-[5-(3,5-dichlorophenyl)-5-(trifluoromethyl)-4,5-dihydroisoxazol-3-yl]benzyl}-N-(pyridin-2-ylmethyl)acetamide] | 100 | 100 | mortality at 100 ppm [3]: ≥ 80%; mortality at 100 ppm [4]: ≥ 80% |

| Compound | death rate [1] [%] | death rate [2] [%] | other results |
| --- | --- | --- | --- |
| CC(=O)NCc1ccc(C2=NOC(c3cccc(Cl)c3)(C(F)(F)F)C2)cc1Br (centres unmarked) [1-98] | 100 | 100 | – |
| O=C(NCc1ccc(C2=NOC(c3cc(Cl)cc(Cl)c3)(C(F)(F)F)C2)cc1Br)c1ccc(Cl)cc1 (centres unmarked) [1-33] | – | 100 | – |
| CC(=O)NCc1ccc(C2=NOC(c3cc(Cl)cc(Cl)c3)(C(F)(F)F)C2)cc1C#N (centres unmarked) [1-62] | 100 | 100 | – |
| CC(=O)NCc1ccc(C2=NOC(c3cccc(C(F)(F)F)c3)(C(F)(F)F)C2)cc1Br (centres unmarked) [1-99] | 100 | 100 | – |
| CC(=O)NCc1ccc(C2=NOC(c3cc(Cl)cc(Cl)c3)(C(F)(F)F)C2)cc1C (centres unmarked) [1-63, N-{4-[5-(3,5-dichlorophenyl)-5-(trifluoromethyl)-4,5-dihydroisoxazol-3-yl]-2-methylbenzyl}acetamide] | 100 | 100 | mortality at 100 ppm [3]: ≥ 80%; mortality at 100 ppm [4]: ≥ 80%; mortality at 100 ppm [5]: ≥ 80% |
| O=C(NCc1ccc(C2=NOC(c3cc(Cl)cc(Cl)c3)(C(F)(F)F)C2)cc1Br)c1ccccc1 (centres unmarked) [1-24] | 100 | 100 | – |
| Cc1ccccc1C(=O)NCc1ccc(C2=NOC(c3cc(Cl)cc(Cl)c3)(C(F)(F)F)C2)cc1Br (centres unmarked) [1-35] | 100 | 100 | – |
| CC(=O)NCc1ccc(C2=NOC(C)(c3cccc(F)c3)C2)cc1Br (centres unmarked) [1-97] | 100 | 100 | – |
| CC(=O)NCc1ccc(C2=NOC(c3cc(Cl)cc(Cl)c3)(C(F)(F)F)C2)cc1F (centres unmarked) [1-57] | 100 | 100 | – |
| O=C(NCc1ccc(C2=NOC(c3cc(Cl)cc(Cl)c3)(C(F)(F)F)C2)cc1Br)c1cccc(Cl)c1 (centres unmarked) [1-32] | 100 | 100 | – |
| CC(=O)N(Cc1ccc(C2=NOC(c3cc(Cl)cc(Cl)c3)(C(F)(F)F)C2)cc1)C(C)=O (centres unmarked) [1-2] | 100 | 100 | – |
| CC(=O)NCc1ccc(C2=NOC(c3cccc([N+](=O)[O-])c3)(C(F)(F)F)C2)cc1Br (centres unmarked) [1-102] | – | 100 | – |
| CC(=O)NCc1ccc(C2=NOC(c3ccc(C(F)(F)F)cc3)(C(F)(F)F)C2)cc1Br (centres unmarked) [1-100] | 100 | 100 | – |
| CC(=O)NCc1ccc(C2=NOC(c3cc(Cl)cc(Cl)c3)(C(F)(F)F)C2)cc1[N+](=O)[O-] (centres unmarked) [1-60, N-{4-[5-(3,5-dichlorophenyl)-5-(trifluoromethyl)-4,5-dihydroisoxazol-3-yl]-2-nitrobenzyl}acetamide] | 100 | 100 | mortality at 100 ppm [3]: ≥ 80%; mortality at 100 ppm [4]: ≥ 80%; mortality at 100 ppm [5]: ≥ 80% |
| CCC(=O)NCc1ccc(C2=NOC(c3cc(Cl)cc(Cl)c3)(C(F)(F)F)C2)cc1Br (centres unmarked) [1-19] | 100 | 100 | – |
| CC(=O)NCc1ccc(C2=NOC(c3cccc(C#N)c3)(C(F)(F)F)C2)cc1Br (centres unmarked) [1-106] | – | 100 | – |
| CC(=O)N(Cc1ccccn1)C(C#N)c1ccc(C2=NOC(c3cc(Cl)cc(Cl)c3)(C(F)(F)F)C2)cc1 (centres unmarked) [1-11, N-(cyano{4-[5-(3,5-dichlorophenyl)-5-(trifluoromethyl)-4,5-dihydroisoxazol-3-yl]phenyl}methyl)-N-(pyridin-2-ylmethyl)-acetamide] | 100 | 100 | – |
| O=C(NCc1ccc(C2=NOC(c3cc(Cl)cc(Cl)c3)(C(F)(F)F)C2)cc1Br)c1ccccc1Cl (centres unmarked) [1-31] | 100 | 100 | death rate [6]: 100% |
| O=CNCc1ccc(C2=NOC(c3cc(Cl)cc(Cl)c3)(C(F)(F)F)C2)cc1Br (centres unmarked) [1-12] | 100 | 100 | – |
| CCCC(=O)NCc1ccc(C2=NOC(c3cc(Cl)cc(Cl)c3)(C(F)(F)F)C2)cc1Br (centres unmarked) [1-20] | 100 | 100 | – |
| CS(=O)(=O)NCc1ccc(C2=NOC(c3cc(Cl)cc(Cl)c3)(C(F)(F)F)C2)cc1Br (centres unmarked) [1-38] | 100 | 100 | – |
| O=C(NCc1ccc(C2=NOC(c3cc(Cl)cc(Cl)c3)(C(F)(F)F)C2)cc1Br)C(F)(F)F (centres unmarked) [1-23] | 100 | 100 | – |
| O=C(NCc1ccc(C2=NOC(c3cc(Cl)cc(Cl)c3)(C(F)(F)F)C2)cc1Br)c1ccccc1F (centres unmarked) [1-28] | 100 | 100 | – |
